Source: article PMC8225200, “Epipregnanolone as a Positive Modulator of GABAA Receptor in Rat Cerebellar and Hippocampus Neurons” (Biomolecules, 2021)

How the values were obtained:
Assay in all cases: whole-cell patch clamp, GABA-induced chloride current
Assay type in all cases: cell-based
[1] = system: T1, GABAA receptor (native, rat cerebellar Purkinje cells); conditions: positive allosteric modulator, 2 µM GABA co-applied, pH 7.4, holding -70 mV
T1 construct: gene Gabra1; native heteropentameric receptors in acutely isolated Purkinje neurons

[2] = system: T2, GABAA receptor (native, rat hippocampal CA3 pyramidal neurons); conditions: positive allosteric modulator; 2 µM GABA co-applied; pH 7.4; holding -70 mV
T2 construct: gene Gabra1; native heteropentameric receptors in acutely isolated CA3 pyramidal neurons; subunit composition not determined

[3] = system: T1, GABAA receptor (native, rat cerebellar Purkinje cells); conditions: weak inhibition; 2 µM GABA co-applied; pH 7.4; holding -70 mV

How did the EC50 ([1]; fit to rising phase of bell-shaped curve) turn out when `CC(=O)[C@H]1CC[C@H]2[C@@H]3CC[C@H]4C[C@H](O)CC[C@]4(C)[C@H]3CC[C@]12C` [ALLO, 3α-hydroxy-5α-pregnan-20-one] was run?
Its EC50 is 0.29 ± 0.06 µM.

What does the source list for `CC(=O)[C@H]1CC[C@H]2[C@@H]3CC[C@@H]4C[C@@H](O)CC[C@]4(C)[C@H]3CC[C@]12C` [Epi, 3β-hydroxy-5β-pregnan-20-one]?
EC50 [1]: 5.7 ± 1.9 µM; EC50 [2]: 9.3 ± 2.9 µM

`CC(=O)[C@H]1CC[C@H]2[C@@H]3CC[C@H]4C[C@@H](O)CC[C@]4(C)[C@H]3CC[C@]12C` [Iso, 3β-hydroxy-5α-pregnan-20-one] was tested. Which “% of control current at 100 μM” value [3] did it give?
Its value is 84 ± 4%.
